Experiments:
Type in all cases: biochemical
EGFR L861Q = EGFR L861Q (Homo sapiens, UniProt P00533, L861Q); assay: Z'-LYTE Tyr4 peptide kinase assay, single dose […]; details: read-out: Mean inhibition at 10 μM (%)
EGFR (ErbB1) = EGFR (ErbB1) (Homo sapiens, UniProt P00533); assay: Z'-LYTE Tyr4 peptide kinase assay, 10-point dose-response
EGFR T790M = EGFR T790M (Homo sapiens, UniProt P00533, T790M); assay: Z'-LYTE Tyr4 peptide kinase assay, single dose […]; details: read-out: Mean inhibition at 10 μM (%)
EGFR L858R = EGFR L858R (Homo sapiens, UniProt P00533, L858R); assay: Z'-LYTE Tyr4 peptide kinase assay, single dose […]; details: read-out: Mean inhibition at 10 μM (%)
Chain of EGFR L858R (P00533 668-1210 L858R limits assumed): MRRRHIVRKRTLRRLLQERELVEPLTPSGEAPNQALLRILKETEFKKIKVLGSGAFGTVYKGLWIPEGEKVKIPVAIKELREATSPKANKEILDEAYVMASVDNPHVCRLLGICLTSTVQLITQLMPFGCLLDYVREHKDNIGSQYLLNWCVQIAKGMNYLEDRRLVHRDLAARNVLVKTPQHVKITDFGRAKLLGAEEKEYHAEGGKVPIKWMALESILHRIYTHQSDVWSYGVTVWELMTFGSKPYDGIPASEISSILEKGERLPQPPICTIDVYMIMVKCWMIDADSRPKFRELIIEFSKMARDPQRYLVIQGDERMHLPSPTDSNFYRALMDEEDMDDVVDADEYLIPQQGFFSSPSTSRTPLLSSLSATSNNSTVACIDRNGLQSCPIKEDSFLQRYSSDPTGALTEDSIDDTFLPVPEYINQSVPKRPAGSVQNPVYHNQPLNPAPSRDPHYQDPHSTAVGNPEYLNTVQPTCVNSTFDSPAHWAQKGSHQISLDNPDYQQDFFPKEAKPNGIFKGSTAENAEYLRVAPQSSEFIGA

Chain of EGFR L861Q (P00533 668-1210 L861Q limits assumed): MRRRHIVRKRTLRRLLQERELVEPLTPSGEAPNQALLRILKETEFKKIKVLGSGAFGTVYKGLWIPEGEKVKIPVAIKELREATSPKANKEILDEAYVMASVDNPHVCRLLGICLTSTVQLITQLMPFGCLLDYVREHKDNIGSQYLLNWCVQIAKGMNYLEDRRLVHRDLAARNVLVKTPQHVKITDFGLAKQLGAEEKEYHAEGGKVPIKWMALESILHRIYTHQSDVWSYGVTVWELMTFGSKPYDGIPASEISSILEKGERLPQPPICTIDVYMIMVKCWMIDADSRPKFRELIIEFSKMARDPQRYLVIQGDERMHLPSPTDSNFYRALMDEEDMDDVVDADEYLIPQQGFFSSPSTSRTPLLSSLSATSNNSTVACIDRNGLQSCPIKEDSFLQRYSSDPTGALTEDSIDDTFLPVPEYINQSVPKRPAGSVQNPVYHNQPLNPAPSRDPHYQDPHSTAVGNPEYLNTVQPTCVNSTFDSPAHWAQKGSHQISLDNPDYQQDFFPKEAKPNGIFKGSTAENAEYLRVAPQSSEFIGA
Chain of EGFR (ErbB1) (P00533 668-1210): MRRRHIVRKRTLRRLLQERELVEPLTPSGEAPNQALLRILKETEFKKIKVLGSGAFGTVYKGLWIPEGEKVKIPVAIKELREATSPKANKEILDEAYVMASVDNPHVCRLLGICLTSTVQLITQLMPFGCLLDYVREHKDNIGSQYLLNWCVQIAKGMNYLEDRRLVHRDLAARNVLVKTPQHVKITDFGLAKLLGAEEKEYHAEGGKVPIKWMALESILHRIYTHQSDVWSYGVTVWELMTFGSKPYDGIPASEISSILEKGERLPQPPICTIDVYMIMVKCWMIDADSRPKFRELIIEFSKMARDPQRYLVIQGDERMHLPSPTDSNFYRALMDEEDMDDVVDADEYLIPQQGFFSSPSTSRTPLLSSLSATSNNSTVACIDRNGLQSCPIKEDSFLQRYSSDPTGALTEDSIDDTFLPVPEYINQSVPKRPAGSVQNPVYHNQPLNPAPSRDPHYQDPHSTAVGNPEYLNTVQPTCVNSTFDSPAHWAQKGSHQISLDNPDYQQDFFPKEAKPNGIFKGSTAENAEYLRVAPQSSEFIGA
Chain of EGFR T790M (P00533 668-1210 T790M limits assumed): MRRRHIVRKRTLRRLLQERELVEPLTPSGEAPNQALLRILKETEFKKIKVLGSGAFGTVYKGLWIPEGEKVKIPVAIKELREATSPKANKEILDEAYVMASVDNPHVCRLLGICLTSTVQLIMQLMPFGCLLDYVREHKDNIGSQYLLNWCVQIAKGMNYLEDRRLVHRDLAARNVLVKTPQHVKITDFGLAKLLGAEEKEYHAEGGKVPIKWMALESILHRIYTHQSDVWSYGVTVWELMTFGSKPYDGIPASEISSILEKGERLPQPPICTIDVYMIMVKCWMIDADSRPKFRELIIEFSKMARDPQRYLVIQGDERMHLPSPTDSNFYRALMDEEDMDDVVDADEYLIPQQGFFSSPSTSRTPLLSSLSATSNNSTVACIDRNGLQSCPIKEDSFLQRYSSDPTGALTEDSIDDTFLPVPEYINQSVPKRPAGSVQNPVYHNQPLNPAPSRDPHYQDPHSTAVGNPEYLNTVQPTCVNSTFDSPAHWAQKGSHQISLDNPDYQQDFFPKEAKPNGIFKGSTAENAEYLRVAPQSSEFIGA

**Q.** How did the inhibition at 10 µM (EGFR L861Q) turn out when CCCC(=O)O[C@]1(C)CC[C@H](C(C)C)[C@@H]2[C@H]1[C@H]1C[C@](C)(O)[C@@H](O)CC[C@@](C)(OC(C)=O)[C@@H]2O1 [compound 1, Pachycladin A] was run?
**A.** 93%

**Q.** And the IC50 (EGFR (ErbB1))?
**A.** 0.57 µM

**Q.** And the inhibition at 10 µM (EGFR T790M)?
**A.** 93%

**Q.** What about the inhibition at 10 µM (EGFR L858R) of the same molecule?
**A.** 98%

Source: paper PMC5272797 (Biochemical pharmacology, 2016)
